Assay results reported in US5270047A, “Local delivery of dipyridamole for the treatment of proliferative diseases” (priority 1991, dated 1993).

Tested on: Balb/c3T3 fibroblasts
Assay: Inhibition of fibroblast growth (Coulter cell counting)
Assay type: cell-based
Procedure: Cells were then transferred to above medium containing indicated concentrations of dipyridamole. After three days cell growth was determined by counting using a ZM Coulter counter (Coulter Diagnostic, Inc.).

SMILES: OCCN(CCO)c1nc(N2CCCCC2)c2nc(N(CCO)CCO)nc(N3CCCCC3)c2n1 [Dipyridamole, 2,6-bis(diethanolamino)-4,8-dipiperidinopyrimido[5,4-d]pyrimidine]
- inhibition at 1 µg/mL (Mus musculus, BALB/c3T3, 72 h, dipyridamole 1.0 μg/ml, three days, 5% fetal bovine serum): 0%
- inhibition at 5 µg/mL (Mus musculus, BALB/c3T3, 72 h, dipyridamole 5.0 μg/ml, three days, 5% fetal bovine serum): 55%
- inhibition at 10 µg/mL (Mus musculus, BALB/c3T3, 72 h, dipyridamole 10 μg/ml, three days, 5% fetal bovine serum): 72%
- inhibition at 20 µg/mL (Mus musculus, BALB/c3T3, 72 h, dipyridamole 20 μg/ml, three days, 5% fetal bovine serum): 86%
- inhibition at 40 µg/mL (Mus musculus, BALB/c3T3, 72 h, dipyridamole 40 μg/ml, three days, 5% fetal bovine serum): 95%
- inhibition of proliferation of cells of mesenchyme origin (fibroblasts): inhibits proliferation of cells of mesenchyme origin
